Legend:
Format in all cases: cell-based
SW480 colon cancer cells = assay: Cell viability assay (CellTiter-Blue) in SW480 cells; conditions: Homo sapiens, 96 h, four days; for inhibition at 10 µM: read-out: percent inhibition at 10 μM (given for EC50 of >10 μM); for EC50: CellTiter-Blue, 10 μM to 0.0045 μM
Summary of the method: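 Four-day viability readout in SW480 cells: compound at 0.0045–10 μM (1:3 series), DMSO controls in eight replicates, CellTiter-Blue fluorescence after ~3 h. Values are regression-derived EC50s, or percent inhibition at 10 μM when EC50 exceeds 10 μM.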

[1] = tested on: primary human fibroblasts derived from IPF patients (LL29 cells) treated with TGF-β1; assay: Inhibition of the fibrotic process: αSMA staining in TGF-β1-treated LL29 fibroblasts; conditions: Fibroblast; for EC50: 96 h, LL29 fibroblasts treated with TGF-β1 (20 ng/mL), 4 days, Table 4; for inhibition at 10 µM: LL29 fibroblasts treated with TGF-β1, Table 4, read-out: percent inhibition at 10 μM (given in parentheses for EC50 >10 μM)
Summary of the method: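 EC50 from triplicate-well dose-response fits of % αSMA-positive cells, normalized to TGF-β1-stimulated DMSO controls, with SYTOX-positive dead cells excluded. LL29 IPF fibroblasts received compound at 10 μM–1.87 nM (0.1% DMSO) plus 20 ng/mL TGF-β1 for 4 days in 1% FBS medium; above 10 μM, % inhibition at 10 μM reported.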

IL-6 (THP-1 cells) = assay: IL-6 inhibition in LPS-stimulated THP-1 monocytes (HTRF); conditions: Homo sapiens, IL-6 HTRF; for EC50: 500 ng/mL LPS, Table 6; for inhibition at 10 µM: LPS, Table 6, read-out: percent inhibition at 10 μM (given in parentheses for EC50 >10 μM)
Summary of the method: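 THP-1 cells in 1% FBS pre-incubated 2 h with compound (10-point 1:3 series from 10 μM, 0.1% DMSO), then stimulated with 500 ng/mL LPS for 22 h at 37 °C. IL-6 measured by HTRF 665/620 ratio, normalized to DMSO; EC50 by four-parameter fit, or % inhibition at 10 μM when EC50 >10 μM.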

Compound	EC50 (SW480 colon cancer cells) [µM]	EC50 (IL-6 (THP-1 cells)) [µM]	inhibition at 10 µM (SW480 colon cancer cells) [%]	EC50 [1] [µM]	inhibition at 10 µM (IL-6 (THP-1 cells)) [%]	inhibition at 10 µM [1] [%]
Cc1cn(-c2cccc3[nH]c(-c4n[nH]c5ccc(C6=CCNCC6)nc45)nc23)cn1 [Compound 618, 3-(4-(4-Methyl-1H-imidazol-1-yl)-1H-benzo[d]imidazol-2-yl)-5-(1,2,3,6-tetrahydropyridin-4-yl)-1H-pyrazolo[4,3-b]pyridine]	> 10	> 10	7.4	> 10	42	7.7
Cc1cn(-c2cccc3[nH]c(-c4n[nH]c5ccc(-c6cncc(N7CC(N)C7)n6)nc45)nc23)cn1 [Compound 622, 1-(6-(3-(4-(4-Methyl-1H-imidazol-1-yl)-1H-benzo[d]imidazol-2-yl)-1H-pyrazolo[4,3-b]pyridin-5-yl)pyrazin-2-yl)azetidin-3-amine]	> 10	0.38	17.8	> 10		0
Cc1cn(-c2cccc3[nH]c(-c4n[nH]c5ccc(-c6cncc(OCCN(C)C)c6)nc45)nc23)cn1 [Compound 627, N,N-Dimethyl-2-((5-(3-(4-(4-methyl-1H-imidazol-1-yl)-1H-benzo[d]imidazol-2-yl)-1H-pyrazolo[4,3-b]pyridin-5-yl)pyridin-3-yl)oxy)ethan-1-amine]	> 10	1	14.1	6.76		
c1ccc2[nH]c(-c3n[nH]c4ccc(-c5cn[nH]c5)nc34)nc2c1 [Compound 651, 3-(1H-Benzo[d]imidazol-2-yl)-5-(1H-pyrazol-4-yl)-1H-pyrazolo[4,3-b]pyridine]	> 10	> 10	33.9	> 10	0	0
c1ccc2[nH]c(-c3n[nH]c4ccc(-c5cncc(OC6CCNCC6)c5)nc34)nc2c1 [Compound 656, 3-(1H-Benzo[d]imidazol-2-yl)-5-(5-(piperidin-4-yloxy)pyridin-3-yl)-1H-pyrazolo[4,3-b]pyridine]	> 10	1.4	20.8	> 10		45.9
Oc1cncc(-c2ccc3[nH]nc(-c4nc5ccccc5[nH]4)c3n2)c1 [Compound 661, 5-(3-(1H-Benzo[d]imidazol-2-yl)-1H-pyrazolo[4,3-b]pyridin-5-yl)pyridin-3-ol]	> 10	> 10	29.2	> 10	50.9	30.3

Second part, led by results:

EC50 (SW480 colon cancer cells) [µM]	EC50 (IL-6 (THP-1 cells)) [µM]	Compound	inhibition at 10 µM (SW480 colon cancer cells) [%]	EC50 [1] [µM]	inhibition at 10 µM (IL-6 (THP-1 cells)) [%]	inhibition at 10 µM [1] [%]
> 10	> 10	c1ccc(COc2cncc(-c3ccc4[nH]nc(-c5nc6c(-c7ccncc7)cccc6[nH]5)c4n3)c2)cc1 [Compound 582, 5-(5-(Benzyloxy)pyridin-3-yl)-3-(4-(pyridin-4-yl)-1H-benzo[d]imidazol-2-yl)-1H-pyrazolo[4,3-b]pyridine]	28.5	1.42	2.8	
> 10	> 10	c1cc(-c2ccncc2)c2nc(-c3n[nH]c4ccc(-c5cnccn5)nc34)[nH]c2c1 [Compound 584, 5-(Pyrazin-2-yl)-3-(4-(pyridin-4-yl)-1H-benzo[d]imidazol-2-yl)-1H-pyrazolo[4,3-b]pyridine]	9.6	> 10	14.7	10
> 10	0.929	O=C(CC1CCNCC1)Nc1cncc(-c2ccc3[nH]nc(-c4nc5c(-c6ccccn6)cccc5[nH]4)c3n2)c1 [Compound 593, 2-(Piperidin-4-yl)-N-(5-(3-(4-(pyridin-2-yl)-1H-benzo[d]imidazol-2-yl)-1H-pyrazolo[4,3-b]pyridin-5-yl)pyridin-3-yl)acetamide]	13.6	1.37		
9.1	0.0695	CN1CCN(c2cccc3[nH]c(-c4n[nH]c5ccc(-c6cnccn6)nc45)nc23)CC1 [Compound 648, 3-(4-(4-Methylpiperazin-1-yl)-1H-benzo[d]imidazol-2-yl)-5-(pyrazin-2-yl)-1H-pyrazolo[4,3-b]pyridine]		> 10		0

— patent US10392383B2, “3-(1H-benzo[d]imidazol-2-yl)-1H-pyrazolo[4,3-b]pyridines and therapeutic uses thereof” (Samumed, LLC, priority 2015, dated 2019)
